# Measurements from US9321809B2, “Macrocyclic compounds for suppressing replication of hepatitis C virus” (Ginkgo Pharma Co., Ltd., priority 2012, dated 2016).
# Like-named read-outs stand apart in the source and are kept apart here.
# Legend:
# [1] = test system: HCV replicon-containing huh-7 cells (replicon 1b); experiment: HCV Replicon Assay (luciferase readout); type: cell-based; conditions: Hepatitis C virus; HCV replicon 1b in huh-7 cells, 48 h incubation, 1% DMSO, luciferase signal; read-out: EC50 (EC 50 on replicon 1b)
# Description: Compounds of formuala (I) are tested for the ability to inhibit viral replication of the Hepatitis C viruses by the following in vitro assays.
# DMEM (Life Technologies #41965-039) was supplemented with 10% FBS, 2 mM L-glutamine (Life Technologies #25030-024), penicillin (100 units/ml)/streptomycin (100 micrograms/ml) (Life Technologies #15140-114), 1× non-essential amino acids (Life Technologies #11140-035).
# Complete media was prepared by mixing FBS, DMEM media with Geneticin (G418). The compete media was preincubated at 37° C. in a CO2 incubator. Then, HCV replicon-containing huh-7 cells (V. Lohmann et. al. Science, 285, (1999)110-113) was taken out from 37° C. incubator. The residual medium was absorbed, and the cells were washed with PBS. After washing fluid was removed, 1 ml 0.25% trypsin/0.02% EDTA solution. The cells were washed by the above trypsin/EDTA solution to make sure that each cell was cleaned. After the trypsin/EDTA solution was absorbed, the mixture was incubated at 37° C. in a CO2 incubator for 3-5 minutes. Morphological changes were observed by inverted microscope, till the cells were detached from the wall of container completely.
# 3 ml of complete media was added to make the cells to suspend. The cells are counted with hematometer. Appropriate volumes of the complete media was added to adjust the cell density to 100,000/ml. Cells were plated with 100 μl of suspension at 10,000/well of 96 well plate. Plates were placed into 37° C. 5% CO2 incubator for 24 h.
# Preparation of Drug Solution:
# Drugs were diluted under aseptic conditions.
# Stock solutions may be prepared before the assay, which means that the test compounds are dissolved in 100% DMSO to afford a final concentration of 2 mM. Before the 96 well culture was completed, the stock solution was diluted with culter media to 100 fold of the final concentration (100× solution).
# 96-well plates were taken out from 37° C. CO2 incubator and morphological changes were observed by inverted microscope. In a ventilator, 1 μl of 100× drug solution was added to wells of 96 well plate until the final concentration of DMSO in the mixture is 1%. The plates were incubated at 37° C. in a CO2 environment for 48 h. 30 μl of Stead-G1® Luciferase Assay System (bought from Promega) was added to each well of 96 well plates and each plate is shaken in a plate shaker for 5 minutes to ensure cells cleavaged completely. The fluorescence signal was quantitated in a Perkin-Elmer plate reader (Envision) and integral time was setted to be 2 second. The following data were achieved after recording and analyzing the data.
# [2] = liver microsome metabolity assay (PK Assays); type: in vitro ADME, human; conditions: pH 7.4
# Description: The following liver microsome metabolity assays validated the PK properties of compounds of Formula (I). 1. Buffer A: 1.0 L 0.1 M potassium phosphate monobasic buffer (including 1.0 mM EDTA); Buffer B: 1.0 L 0.1 M dipotassium phosphate buffer (including 1.0 mM EDTA); Buffer C: 0.1 M potassium phosphate buffer (including 1.0 mM EDTA), pH 7.4, add Buffer A to 700 ml of Buffer B until pH is 7.4. 2. Drug solution: 500 μM solution: a 10 μL (10 mM) DMSO was added to 190 μL ACN; 1.5 μM solution (dissolved in human microsome and the final concentration of microsome is 0.75 mg/mL): 1.5 μL (500 μM) of drug solution and 18.75 μL of human microsome (20 mg/mL) were added to 479.75 uL of Buffer C. 3. NADPH solution (6 mM, dissolved in Buffer C). 4. 30 µL of drug solution (1.5 μM) was added to a 96-well plate, setting locations for different time points; Preincubated for 10 minutes at 37° C. 5. […] of NADPH (6 mM) was added to the location for 45-min time point; and timing started. 6. At 30, 15 and 5 min, […] of NADPH (6 mM) was added to each corresponding locations, respectively. 7. After the reaction was completed mins), 135 μL acetonitrile was added to the locations for all different time points; 15 µL of NADPH (6 mM) was added to the location for 0 min time point. 8. Centrifugated at 3220 g for 10 min. 9. 50 μL of supernatant was collected and mixed with 50 μL, of ultrapure water. Samples were sent to LC/MS for analysis.
smiles,measurement,setting,value
"C=C[C@@H]1C[C@]1(NC(=O)[C@@H]1C[C@@H]2CN1C(=O)[C@H](C1CCCCC1)NC(=O)[C@@H](NC(=O)OC(C)(C)C)COC/C=C/c1cccc3c1CN(C3)C(=O)O2)C(=O)NS(=O)(=O)C1CC1 [Compound IIa-16, tert-butyl N-[(1R,12E,17S,20S,23S)-20-cyclohexyl-23-{[(1R,2S)-1-[(cyclopropanesulfonyl)carbamoyl]-2-ethenylcyclopropyl]carbamoyl}-3,18,21-trioxo-2,15-dioxa-4,19,22-triazatetracyclo[20.2.1.1^4,7.0^6,11]hexacosa-6,8,10,12-tetraen-17-yl]carbamate]",EC50,[1],< 10 nM
same,half-life at 1 µM,"[2]; human, microsomes",3.22 h
"CC[C@@H]1C[C@]1(NC(=O)[C@@H]1C[C@@H]2CN1C(=O)[C@H](C(C)(C)C)NC(=O)OCC(C)(C)CCCCc1cccc3c1CN(C3)C(=O)O2)C(=O)NS(=O)(=O)C1CC1 [MK7009, reference compound]",EC50,[1],< 10 nM
same,half-life at 1 µM,"[2]; human liver microsomes, human microsome 0.75 mg/mL, 1.5 μM drug solution, NADPH, 37° C., time points 0-45 min, LC/MS, read-out: t1/2",0.433 h
"C=C[C@@H]1C[C@]1(NC(=O)[C@@H]1C[C@@H]2CN1C(=O)[C@H](C(C)(C)C)NC(=O)[C@@H](NC(=O)OC(C)(C)C)COC/C=C/c1cccc3c1CN(C3)C(=O)O2)C(=O)NS(=O)(=O)C1CC1 [Compound IIa-1, tert-butyl N-[(1R,12E,17S,20S,23S)-20-tert-butyl-23-{[(1R,2S)-1-[(cyclopropanesulfonyl)carbamoyl]-2-ethenylcyclopropyl]carbamoyl}-3,18,21-trioxo-2,15-dioxa-4,19,22-triazatetracyclo[20.2.1.1^4,7.0^6,11]hexacosa-6,8,10,12-tetraen-17-yl]carbamate]",EC50,[1],< 10 nM
same,half-life at 1 µM,"[2]; human, microsomes",3.3 h
"C=C[C@@H]1C[C@]1(NC(=O)[C@@H]1C[C@@H]2CN1C(=O)[C@H](C1CCCCC1)NC(=O)[C@@H](NC(=O)OC(C)(C)C)COC/C=C/c1cc3c(nccc3cc1OC)O2)C(=O)NS(=O)(=O)C1CC1 [Compound IIb-3, tert-butyl N-[(3R,5S,8S,11S,15E)-8-cyclohexyl-5-{[(1R,2S)-1-[(cyclopropanesulfonyl)carbamoyl]-2-ethenylcyclopropyl]carbamoyl}-18-methoxy-7,10-dioxo-2,13-dioxa-6,9,23-triazatetracyclo[15.6.2.1^3,6.0^20,24]hexacosa-1(23),15,17(25),18,20(24),21-hexaen-11-yl]carbamate]",EC50,[1],< 10 nM
same,half-life at 1 µM,"[2]; human, microsomes",3.83 h
